According to US8318504B2, “MRP2 efflux pathway prognostic method” (priority 2009, dated 2012):
Like-named read-outs stand apart in the source and are kept apart here.

Key:
[1] = Biliary secretion study of CLF in wild type, Abcc2-/- and Abcc3-/- mice; assay type: in vivo; settings: FVB, mouse, blood, intravenous, 100 μL of 1 mmol/L CLF, 120 minutes after administration, read-out: blood levels of CLF
Protocol: (§1) Mice received 100 μL of 1 mmol/L CLF by injection in the tail vein. Data represent means±SD. Plasma levels are expressed in nmol/L and levels in urine, liver and bile as percentage of administered dose. Significance was tested using two-sided Student's t-test: *P<0.05 for Abcc2^-/- vs wild type mice. Data represent means±SD. Abcc2^-/- mice (against a Friend virus B-type (FVB) background) were bred at the National Cancer Institute (Amsterdam, The Netherlands). Production and characterization of the Abcc2^-/- mice was as described by […] et al. [J Pharmacol Exp Ther 2006 July; 318(1):319-327]. Wild type and Abcc3^-/- mice (against an FVB background) were bred at the animal institute of the Academic Medical Center. Production and characterization of the Abcc3^-/- mice was as described by Zelcer et al. [J Hepatol 2006 April; 44(4):768-775]. For biliary secretion studies, the gall bladder was cannulated with PE10 polyethylene tubing and 100 μL (1 mmol/L) CLF was injected in the tail vein. Bile was collected in 10 minutes fractions; liver and blood were harvested at the end of the experiment. Homogenised livers were deproteinised by adding 2 volumes of MeOH, and bile and blood samples were diluted with 0.1% Triton-X-100. The amount CLF was quantitated by measurement of fluorescence as described above.

Abcc2 and Abcc3 = assay: as above; assay type: in vivo; settings: for cumulative biliary excretion of CLF / hepatic retention of CLF: 120 minutes after administration
Protocol: as §1

ABCB11 [2] = target: T1, ABCB11 (Homo sapiens, UniProt O95342); assay: CLF inhibition of TC transport into ABCB11 containing Sf21 membrane vesicles; assay type: biochemical; settings: ATP-dependent transport, read-out: concentration of CLF at which half maximal TC transport was observed
T1 construct: His tag (inferred from the anti-his probe used on the Western blot); made in house; host or cells: Sf21 insect cells, baculovirus (gift from Thompson); plasma membrane vesicles
T1 sequence (O95342 whole entry): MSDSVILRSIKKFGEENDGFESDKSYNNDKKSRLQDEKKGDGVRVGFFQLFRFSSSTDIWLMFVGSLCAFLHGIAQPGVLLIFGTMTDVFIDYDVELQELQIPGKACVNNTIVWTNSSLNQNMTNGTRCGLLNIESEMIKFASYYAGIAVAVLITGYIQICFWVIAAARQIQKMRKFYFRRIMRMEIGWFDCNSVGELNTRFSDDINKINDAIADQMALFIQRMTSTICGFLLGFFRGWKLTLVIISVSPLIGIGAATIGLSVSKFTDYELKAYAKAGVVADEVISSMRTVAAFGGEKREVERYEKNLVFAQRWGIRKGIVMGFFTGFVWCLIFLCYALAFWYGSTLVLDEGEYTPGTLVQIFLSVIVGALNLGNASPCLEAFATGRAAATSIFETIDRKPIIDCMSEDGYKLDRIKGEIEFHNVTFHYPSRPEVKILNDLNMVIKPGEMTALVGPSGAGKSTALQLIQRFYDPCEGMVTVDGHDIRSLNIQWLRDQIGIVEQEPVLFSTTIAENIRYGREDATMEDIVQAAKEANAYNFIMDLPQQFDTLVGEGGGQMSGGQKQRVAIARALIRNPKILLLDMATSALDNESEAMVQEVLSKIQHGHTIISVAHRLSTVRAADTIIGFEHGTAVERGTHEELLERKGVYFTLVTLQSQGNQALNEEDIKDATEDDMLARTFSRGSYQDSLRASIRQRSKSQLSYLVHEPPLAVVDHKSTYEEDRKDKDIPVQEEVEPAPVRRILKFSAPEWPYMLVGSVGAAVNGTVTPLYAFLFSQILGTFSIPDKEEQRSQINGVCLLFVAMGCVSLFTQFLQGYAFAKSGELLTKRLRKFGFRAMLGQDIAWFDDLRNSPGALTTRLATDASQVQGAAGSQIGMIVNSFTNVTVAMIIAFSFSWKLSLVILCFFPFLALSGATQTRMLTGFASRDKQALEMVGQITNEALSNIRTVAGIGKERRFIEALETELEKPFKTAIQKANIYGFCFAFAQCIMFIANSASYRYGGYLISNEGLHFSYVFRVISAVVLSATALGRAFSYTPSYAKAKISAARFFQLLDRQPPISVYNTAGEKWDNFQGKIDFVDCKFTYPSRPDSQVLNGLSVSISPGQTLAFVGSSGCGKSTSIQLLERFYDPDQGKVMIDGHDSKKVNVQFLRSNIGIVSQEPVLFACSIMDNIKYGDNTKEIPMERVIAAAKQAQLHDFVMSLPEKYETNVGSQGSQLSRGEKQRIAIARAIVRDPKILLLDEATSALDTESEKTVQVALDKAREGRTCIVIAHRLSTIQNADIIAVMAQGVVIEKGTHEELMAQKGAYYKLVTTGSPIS
Protocol: FIGS. 5A and 5B show CLF inhibition of DNP-SG and TC transport into ABCC2 (A) and ABCB11 (B) protein containing Sf21 membrane vesicles respectively. The values are expressed as a percentage of maximal ATP-dependent transport. Significance was tested using two-sided Student's t-test: *P<0.05 for transport in the presence vs. absence of inhibitor.
The production of recombinant baculovirus was as described by de Waart et al. [Liver Int 2006 April; 26(3):362-368]. ABCC3 and ABCG2-recombinant baculovirus were a kind gift from Borst [Breedveld P. et al., Cancer Res 2004 Aug. 15; 64(16):5804-5811 and Borst P. et al., J Biol Chem 2001 Dec. 7; 276(49):46400-46407.]. ABCB11-recombinant baculovirus was a kind gift from Thompson [Thompson R J et al., Gastroenterology 2002 November; 123(5):1649-1658]. Sf21 cells grown at 27° C. were infected with ABCB11, ABCC2, ABCC3 and ABCG2-cDNA containing baculovirus. Cells were harvested at 2-4 days after infection. […]
Transport studies with membrane vesicles were performed using the rapid filtration technique as described by Heijn M et al. [Am J Physiol 1992 January; 262(1 Pt 1):C104-C110]. Radiolabel was measured with a scintillation counter. […] Samples were pipetted in 96-well plates (Kartell, Noviglio, Italy) and the amount CLF quantitated by measurement of fluorescence at λexe 485 nm and λcm 520 nm using a NovoStar (BMG-labtech, Offenburg, Germany).

ABCC2 = target: T2, ABCC2 (Homo sapiens, UniProt Q92887); assay: ATP-dependent transport of CLF into Sf21 membrane vesicles containing ABCC2; assay type: biochemical; design: Vmax of ABCC2 mediated transport of CLF: unit not given here
T2 construct: made in house; host or cells: Sf21 insect cells, baculovirus; plasma membrane vesicles
T2 sequence (Q92887 whole entry): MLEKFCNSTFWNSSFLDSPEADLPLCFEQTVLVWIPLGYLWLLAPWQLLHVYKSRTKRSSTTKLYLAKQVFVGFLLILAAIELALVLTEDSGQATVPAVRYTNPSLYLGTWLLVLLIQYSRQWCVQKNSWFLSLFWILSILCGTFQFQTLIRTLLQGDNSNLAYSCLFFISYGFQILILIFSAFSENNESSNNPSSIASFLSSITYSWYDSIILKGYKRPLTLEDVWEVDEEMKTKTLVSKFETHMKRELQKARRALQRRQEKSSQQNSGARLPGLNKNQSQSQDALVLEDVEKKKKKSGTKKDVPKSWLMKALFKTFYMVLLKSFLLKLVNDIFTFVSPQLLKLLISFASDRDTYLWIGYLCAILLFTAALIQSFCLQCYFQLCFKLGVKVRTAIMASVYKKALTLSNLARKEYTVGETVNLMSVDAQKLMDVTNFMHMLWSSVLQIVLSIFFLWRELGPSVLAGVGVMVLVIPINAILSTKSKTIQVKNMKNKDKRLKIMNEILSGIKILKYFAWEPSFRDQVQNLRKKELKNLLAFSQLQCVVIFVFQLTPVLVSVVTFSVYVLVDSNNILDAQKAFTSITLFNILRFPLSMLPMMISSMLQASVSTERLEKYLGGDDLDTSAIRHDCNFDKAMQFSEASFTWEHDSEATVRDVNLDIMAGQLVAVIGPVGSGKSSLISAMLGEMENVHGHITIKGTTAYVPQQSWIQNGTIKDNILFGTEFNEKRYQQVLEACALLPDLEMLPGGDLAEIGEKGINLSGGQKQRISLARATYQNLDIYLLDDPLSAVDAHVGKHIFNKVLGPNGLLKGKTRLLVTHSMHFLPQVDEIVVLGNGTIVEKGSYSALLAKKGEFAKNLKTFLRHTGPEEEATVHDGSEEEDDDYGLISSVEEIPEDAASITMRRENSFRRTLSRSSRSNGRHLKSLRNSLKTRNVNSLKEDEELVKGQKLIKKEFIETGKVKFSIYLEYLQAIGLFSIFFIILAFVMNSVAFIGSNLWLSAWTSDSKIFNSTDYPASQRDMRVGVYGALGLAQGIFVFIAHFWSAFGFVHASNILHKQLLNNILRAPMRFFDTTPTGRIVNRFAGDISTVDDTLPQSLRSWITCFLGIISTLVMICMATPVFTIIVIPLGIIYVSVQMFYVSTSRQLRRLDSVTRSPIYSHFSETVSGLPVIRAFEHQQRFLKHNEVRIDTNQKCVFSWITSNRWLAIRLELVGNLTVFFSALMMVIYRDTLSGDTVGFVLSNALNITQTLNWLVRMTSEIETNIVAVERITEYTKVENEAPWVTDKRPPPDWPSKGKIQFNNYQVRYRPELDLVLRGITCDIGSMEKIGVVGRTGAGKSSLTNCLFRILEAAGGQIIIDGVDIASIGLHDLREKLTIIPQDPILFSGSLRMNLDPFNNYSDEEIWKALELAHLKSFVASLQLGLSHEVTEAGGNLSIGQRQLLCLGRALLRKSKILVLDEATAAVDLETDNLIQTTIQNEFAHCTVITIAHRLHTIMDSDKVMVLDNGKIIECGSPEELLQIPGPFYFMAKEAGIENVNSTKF
Protocol: (§2) The production of recombinant baculovirus was as described by de Waart et al. [Liver Int 2006 April; 26(3):362-368]. ABCC3 and ABCG2-recombinant baculovirus were a kind gift from Borst [Breedveld P. et al., Cancer Res 2004 Aug. 15; 64(16):5804-5811 and Borst P. et al., J Biol Chem 2001 Dec. 7; 276(49):46400-46407.]. ABCB11-recombinant baculovirus was a kind gift from Thompson [Thompson R J et al., Gastroenterology 2002 November; 123(5):1649-1658]. Sf21 cells grown at 27° C. were infected with ABCB11, ABCC2, ABCC3 and ABCG2-cDNA containing baculovirus. Cells were harvested at 2-4 days after infection. Membrane vesicle preparation was as described by de Waart et al. [Liver Int 2006 April; 26(3):362-368].
(§3) Transport studies with membrane vesicles were performed using the rapid filtration technique as described by Heijn M et al. [Am J Physiol 1992 January; 262(1 Pt 1):C104-C110]. Radiolabel was measured with a scintillation counter. When CLF was used as a probe, filters were placed in a glass tube, 0.1% Triton-X-100 was added and the tubes vortexed. Samples were pipetted in 96-well plates (Kartell, Noviglio, Italy) and the amount CLF quantitated by measurement of fluorescence at λexe 485 nm and λcm 520 nm using a NovoStar (BMG-labtech, Offenburg, Germany). […]

ABCB11 [3] = target: T1, ABCB11; assay: ATP-dependent transport of CLF into Sf21 membrane vesicles containing ABCB11; assay type: biochemical; settings: compared with control vesicles
Protocol: as §2
(§4) Transport studies with membrane vesicles were performed using the rapid filtration technique as described by Heijn M et al. [Am J Physiol 1992 January; 262(1 Pt 1):C104-C110]. Radiolabel was measured with a scintillation counter. When CLF was used as a probe, filters were placed in a glass tube, 0.1% Triton-X-100 was added and the tubes vortexed. Samples were pipetted in 96-well plates (Kartell, Noviglio, Italy) and the amount CLF quantitated by measurement of fluorescence at λexe 485 nm and λcm 520 nm using a NovoStar (BMG-labtech, Offenburg, Germany).

ABCC3 = target: T3, ABCC3 (Homo sapiens, UniProt O15438); assay: ATP-dependent transport of CLF into Sf21 membrane vesicles containing ABCC3; assay type: biochemical
T3 construct: made in house; host or cells: Sf21 insect cells, baculovirus (gift from Borst); plasma membrane vesicles
T3 sequence (O15438 whole entry): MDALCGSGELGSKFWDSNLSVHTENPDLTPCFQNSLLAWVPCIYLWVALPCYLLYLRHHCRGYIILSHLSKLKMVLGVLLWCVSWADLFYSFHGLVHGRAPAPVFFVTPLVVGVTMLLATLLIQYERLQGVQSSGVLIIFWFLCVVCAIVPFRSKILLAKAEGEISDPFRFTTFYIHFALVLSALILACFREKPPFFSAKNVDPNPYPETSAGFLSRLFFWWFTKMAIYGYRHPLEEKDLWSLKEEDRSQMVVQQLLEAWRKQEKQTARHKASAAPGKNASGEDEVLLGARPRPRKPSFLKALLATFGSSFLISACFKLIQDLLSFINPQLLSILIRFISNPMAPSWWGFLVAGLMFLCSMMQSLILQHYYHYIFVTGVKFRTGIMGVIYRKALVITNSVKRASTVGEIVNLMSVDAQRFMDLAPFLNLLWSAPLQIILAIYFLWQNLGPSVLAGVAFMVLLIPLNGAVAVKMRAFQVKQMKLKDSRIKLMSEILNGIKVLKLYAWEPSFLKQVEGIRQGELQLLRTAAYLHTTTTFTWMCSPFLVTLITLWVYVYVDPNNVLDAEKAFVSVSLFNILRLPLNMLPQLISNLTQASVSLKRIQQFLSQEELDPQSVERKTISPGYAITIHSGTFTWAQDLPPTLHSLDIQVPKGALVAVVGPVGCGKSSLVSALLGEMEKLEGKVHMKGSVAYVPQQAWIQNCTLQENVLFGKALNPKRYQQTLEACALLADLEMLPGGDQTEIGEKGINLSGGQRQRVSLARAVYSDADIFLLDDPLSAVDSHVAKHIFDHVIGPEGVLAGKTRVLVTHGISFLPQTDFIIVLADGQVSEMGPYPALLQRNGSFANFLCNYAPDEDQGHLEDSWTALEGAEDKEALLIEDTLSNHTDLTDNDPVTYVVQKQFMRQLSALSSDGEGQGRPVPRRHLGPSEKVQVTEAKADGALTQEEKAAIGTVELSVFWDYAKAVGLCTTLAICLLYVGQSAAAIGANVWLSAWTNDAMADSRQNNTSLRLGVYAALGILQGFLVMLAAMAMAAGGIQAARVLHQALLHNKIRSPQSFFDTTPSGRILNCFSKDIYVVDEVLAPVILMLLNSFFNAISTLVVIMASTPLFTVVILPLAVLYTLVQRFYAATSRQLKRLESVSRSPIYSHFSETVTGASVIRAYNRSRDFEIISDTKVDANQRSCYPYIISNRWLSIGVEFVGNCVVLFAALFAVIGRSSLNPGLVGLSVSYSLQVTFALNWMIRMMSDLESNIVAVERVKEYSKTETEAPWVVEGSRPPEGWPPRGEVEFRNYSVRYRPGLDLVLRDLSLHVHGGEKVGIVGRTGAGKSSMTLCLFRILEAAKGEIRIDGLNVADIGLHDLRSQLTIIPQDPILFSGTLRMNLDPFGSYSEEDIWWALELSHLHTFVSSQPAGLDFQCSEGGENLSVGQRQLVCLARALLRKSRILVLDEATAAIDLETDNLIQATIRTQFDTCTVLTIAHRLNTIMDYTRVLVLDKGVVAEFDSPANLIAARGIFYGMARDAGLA
Protocol: as §2, §3

[4] = ATP-dependent transport of CLF into control wild type Sf21 membrane vesicles; assay type: biochemical
Protocol: as §2, §4

[5] = compared to control wild type Sf21 membrane vesicles

For `CC(CCC(=O)NC(CCCCNC(=S)Nc1ccc(-c2c3ccc(=O)cc-3oc3cc(O)ccc23)c(C(=O)O)c1)C(=O)O)C1CCC2C3C(O)CC4CC(O)CCC4(C)C3CC(O)C12C` (centres unmarked) [CLF, cholyl lysyl fluorescein], the concentration at 120 min ([1]; Abcc2-/- mice) was 1310 ± 749 nM, the concentration at 120 min ([1]; wt mice) was 83 ± 21 nM and the “biliary output of CLF in Abcc3-/- mice in comparison with wild type mice” value (Abcc2 and Abcc3; 100 μL 1 mmol/L CLF in the tail vein) was “not affected”. For the same molecule, the “CLF dose excreted into bile within 20 minutes” value (Abcc2 and Abcc3; Abcc2-/- mice, 100 μL 1 mmol/L CLF in the tail vein) was “less than 2%”, the “cumulative biliary excretion of CLF” value (Abcc2 and Abcc3; Abcc2-/- mice) was 32 % of the administered dose and the “hepatic retention of CLF” value (Abcc2 and Abcc3; Abcc2-/- mice) was 64 % of the administered dose. For the same molecule, the “plasma and liver CLF contents in Abcc3-/- mice in comparison with wild type mice” value (Abcc2 and Abcc3; after 2 hours) was “no differences”, the “CLF dose excreted into bile within 20 minutes” value (Abcc2 and Abcc3; wild type mice, 100 μL 1 mmol/L CLF in the tail vein) was ~70% and the “cumulative biliary excretion of CLF” value (Abcc2 and Abcc3; wild type mice) was 85 % of the administered dose. The “hepatic retention of CLF” value (Abcc2 and Abcc3; wt mice) was 1 % of the administered dose, the IC50 (ABCB11 [2]) was ~10 µM and the “Vmax of ABCC2 mediated transport of CLF” value (ABCC2; 10 μg total protein, presence or absence of 4 mmol/L ATP) was 436±215. For the same molecule, the “CLF transport in ABCC2 containing membrane vesicles” value (ABCC2; [5]) was “much higher CLF transport rates”, the “ATP-dependent transport of CLF in ABCB11 containing membrane vesicles” value (ABCB11 [3]) was “not higher than in control vesicles” and the “Vmax of ABCC3 mediated transport of CLF” value (ABCC3; 30 μg total protein, presence or absence of 4 mmol/L ATP) was 188±55 μmol CLF/mg protein/min. For the same molecule, the “CLF transport in ABCC3 containing membrane vesicles” value (ABCC3; [5]) was “much higher CLF transport rates” and the “ATP-dependent uptake of CLF in control vesicles” value [4] was “slight ATP-dependent uptake”.
